Measured values: patent US20060058274A1, “Use of an aldosterone receptor antagonist to improve cognitive function” (Pharmacia Corporation, priority 2000, published 2006)
Marks after values point to notes of the source that are not given here.

Legend:
rats = conditions: prior treatment; scopolamine cholinergic blockade; cited from earlier work
[1] = system: patients with severe heart failure; experiment: Clinical study in patients with severe heart failure: HRQOL by SF-36; assay type: in vivo, human; conditions: for Change from baseline in SF-36 Bodily Pain / Change from baseline in SF-36 General Health / Change from baseline in SF-36 Mental Composite Summary (MCS) / Change from baseline in SF-36 Mental Health / Change from baseline in SF-36 Physical Composite Summary (PCS) / Change from baseline in SF-36 Physical Functioning / Change from baseline in SF-36 Role Limitations - Emotional / Change from baseline in SF-36 Role Limitations - Physical / Change from baseline in SF-36 Social Functioning / Change from baseline in SF-36 Vitality: 25 mg daily, mean ± SD; for Effect size estimate for change in SF-36 Bodily Pain / Effect size estimate for change in SF-36 General Health / Effect size estimate for change in SF-36 Mental Composite Summary (MCS) / Effect size estimate for change in SF-36 Mental Health / Effect size estimate for change in SF-36 Physical Composite Summary (PCS) / Effect size estimate for change in SF-36 Physical Functioning / Effect size estimate for change in SF-36 Role Limitations - Emotional / Effect size estimate for change in SF-36 Role Limitations - Physical / Effect size estimate for change in SF-36 Social Functioning / Effect size estimate for change in SF-36 Vitality: [mean (spironolactone) − mean (placebo)]/(SD placebo at baseline)
Source text: Patients: One thousand six hundred and sixty-three (1,663) patients with severe heart failure were enrolled in the study. […] Treatment with digitalis and vasodilators was allowed, but potassium-sparing diuretics were not permitted. Oral potassium supplements were not recommended unless hypokalemia (serum potassium ≦3.5 mmol per liter) developed. A low salt diet (100-200 mEg/day, sodium) was recommended to all patients. Patients were excluded from the trial if they had clinically significant operable valvular disease (other than mitral or tricuspid regurgitation), congenital heart disease, unstable angina, primary hepatic failure, active malignancy, a heart transplant or were a candidate for heart transplantation, or any life threatening diseae (other than heart failure). Other criteria for exclusion were a serum creatinine concentration >2.5 mg per deciliter (>220 μmol per liter) or a serum potassium concentration >5.0 mmol per liter. The protocol was approved by the Institutional Review Boards or Ethics Committees of all participating institutions. Written informed consent was obtained from all patients.
Study Group: Subjects were randomly assigned to receive either spironolactone 25 mg daily or placebo. HRQOL was assessed in a subsample of 90 subjects in 2 participating countries using the Medical Outcomes Trust Short-Form 36-item Health Survey (SF-36). Assessments were scheduled at baseline, 1, 2, 3, and 6 months after initiation of therapy.
HRQOL Evaluation: HRQOL was assessed using the Short-Form 36-item Health Survey (SF-36). (Ware J E, Snow K K, Kosinski M, Gandek B. SF-36 Health Survey: Manual and Interpretation Guide. Boston, Mass.: The Health Institute, 1993). Assessments were scheduled at baseline, 1, 2, 3, 6 and 12 months after initiation of therapy. The analysis presented herein is limited to 6-month follow-up as less than 50% of subjects had 12-month follow-up data.
Statistical Analyses: Change from baseline was assessed for the 8 dimension scores of the SF-36, as well as the Physical (PCS) and Mental Composite Summary (MCS) scores. (Ware J E, Kosinski M, Keller S D. SF-36 Physical and Mental Health Summary Scales: A User's Manual. Boston, Mass.: The Health Institute, 1994). The PCS and MCS are generated to represent weighted summaries scores of the four physical functioning scales and four mental functioning scales of the SF-36. The summary scores are generally regarded as having improved reliability and precision as they are based on an incrementally larger number of health states contained in the SF-36 items. (Ware J E, Kosinski M, Keller S D. SF-36 Physical and Mental Health Summary Scales: A User's Manual. Boston, Mass.: The Health Institute, 1994.) Changes from baseline scores were compared between groups using non-directional independent groups t-tests. An alpha level of 0.05 was considered to be statistically significant. As an indicator of the responsiveness of the SF-36 scales to changes in health-related quality of life in severe heart failure patients, effect size estimates were also calculated. Effect size estimates were calculated as [mean (spironolactone)−mean (placebo)]/(SD placebo at baseline). (Hays R D, Anderson R, Revicki D. Psychometric considerations in evaluating health-related quality of life. Quality of Life Research 1993;2:441-449; Samsa G, Edelman D, Rothman M L, et al. Determining clinically important differences in health status measures. A general approach with illustrations to the Health Utilities Index Mark II. PharmacoEconomics1999;15:141-155). All analyses were carried out using SAS System for Windows, Release 6.12. (SAS version 6.12, SAS Institute Inc., North Carolina, 1996).
Patient Characteristics: Baseline HRQOL was assessed in a subsample of 90 subjects in 2 participating countries (i.e., Brazil and Canada). Forty-six subjects were randomized to spironolactone; 44 were randomized to the placebo arm. Sixty subjects had complete data for the 6 months of follow-up.

women with PMS = conditions: cited from earlier work
animal models = conditions: cited from earlier work
[2] = system: patients with mild-to-moderate hypertension; experiment: Phase II dose-ranging study of eplerenone in mild-to-moderate hypertension; assay type: in vivo, human; conditions: 50 mg BID
Source text: The adjusted mean changes (in mmHg) in diastolic blood pressure (DBP) and systolic blood pressure (SBP) from baseline to final visit are shown in Table 1A.

[3] = 3 months, listed as spironolactone
[4] = 6 months, listed as spironolactone
[5] = added to conventional heart failure therapy, severe HF
[6] = 100 mg daily from day 14 of menstrual cycle, compared to placebo, p<0.001
[7] = ambulatory blood pressure monitoring

CC(=O)SC1CC2=CC(=O)CCC2(C)C2CCC3(C)C(CCC34CCC(=O)O4)C12 (stereo not shown) [Spironolactone, 17-hydroxy-7″-mercapto-3-oxo-17″-pregn-4-ene-21-carboxylic acid γ-lactone acetate]
enhanced reactivity to novelty (rats): ameliorated | Change from baseline in SF-36 Bodily Pain ([1]; 3 months): 19.6 ± 30.0^a | Change from baseline in SF-36 General Health ([1]; 3 months): 9.7 ± 20.4^a | Change from baseline in SF-36 Mental Composite Summary (MCS) ([1]; 3 months): 13.2 ± 11.8^a,b | Change from baseline in SF-36 Mental Health ([1]; 3 months): 19.9 ± 21.2^a,b | Change from baseline in SF-36 Physical Composite Summary (PCS) ([1]; 3 months): 3.0 ± 8.1^a | Change from baseline in SF-36 Physical Functioning ([1]; 3 months): 7.9 ± 19.4^a | Change from baseline in SF-36 Role Limitations - Emotional ([1]; 3 months): 37.8 ± 46.1^a | Change from baseline in SF-36 Role Limitations - Physical ([1]; 3 months): 23.3 ± 40.1^a | Change from baseline in SF-36 Social Functioning ([1]; 3 months): 24.6 ± 33.6^a | Change from baseline in SF-36 Vitality ([1]; 3 months): 16.7 ± 24.1^a | Change from baseline in SF-36 Mental Composite Summary (MCS) [1, 3]: 13.2±11.8 | Change from baseline in SF-36 Mental Health [1, 3]: 19.9±21.2 | Effect size estimate for change in SF-36 Bodily Pain ([1]; 3 months): 0.40 | Effect size estimate for change in SF-36 General Health ([1]; 3 months): 0.03 | Effect size estimate for change in SF-36 Mental Composite Summary (MCS) ([1]; 3 months): 0.86 | Effect size estimate for change in SF-36 Mental Health ([1]; 3 months): 0.76 | Effect size estimate for change in SF-36 Physical Composite Summary (PCS) ([1]; 3 months): −0.21 | Effect size estimate for change in SF-36 Physical Functioning ([1]; 3 months): −0.23 | Effect size estimate for change in SF-36 Role Limitations - Emotional ([1]; 3 months): 0.48 | Effect size estimate for change in SF-36 Role Limitations - Physical ([1]; 3 months): 0.33 | Effect size estimate for change in SF-36 Social Functioning ([1]; 3 months): 0.26 | Effect size estimate for change in SF-36 Vitality ([1]; 3 months): −0.07 | Change from baseline in SF-36 Bodily Pain ([1]; 6 months): 15.9 ± 30.5^a | Change from baseline in SF-36 General Health ([1]; 6 months): 12.0 ± 22.3^a | Change from baseline in SF-36 Mental Composite Summary (MCS) ([1]; 6 months): 10.3 ± 12.8^a | Change from baseline in SF-36 Mental Health ([1]; 6 months): 17.5 ± 22.9^a,b | Change from baseline in SF-36 Physical Composite Summary (PCS) ([1]; 6 months): 3.9 ± 9.1^a | Change from baseline in SF-36 Physical Functioning ([1]; 6 months): 11.4 ± 21.5^a | Change from baseline in SF-36 Role Limitations - Emotional ([1]; 6 months): 24.0 ± 39.9^a | Change from baseline in SF-36 Role Limitations - Physical ([1]; 6 months): 14.8 ± 32.3^a | Change from baseline in SF-36 Social Functioning ([1]; 6 months): 23.1 ± 32.1^a | Change from baseline in SF-36 Vitality ([1]; 6 months): 19.0 ± 25.5^a | Change from baseline in SF-36 Mental Composite Summary (MCS) [1, 4]: 10.3±12.8 | Change from baseline in SF-36 Mental Health [1, 4]: 17.5±22.9 | Effect size estimate for change in SF-36 Bodily Pain ([1]; 6 months): 0.28 | Effect size estimate for change in SF-36 General Health ([1]; 6 months): 0.08 | Effect size estimate for change in SF-36 Mental Composite Summary (MCS) ([1]; 6 months): 0.64 | Effect size estimate for change in SF-36 Mental Health ([1]; 6 months): 0.59 | Effect size estimate for change in SF-36 Physical Composite Summary (PCS) ([1]; 6 months): −0.07 | Effect size estimate for change in SF-36 Physical Functioning ([1]; 6 months): −0.11 | Effect size estimate for change in SF-36 Role Limitations - Emotional ([1]; 6 months): −0.42 | Effect size estimate for change in SF-36 Role Limitations - Physical ([1]; 6 months): −0.18 | Effect size estimate for change in SF-36 Social Functioning ([1]; 6 months): 0.20 | Effect size estimate for change in SF-36 Vitality ([1]; 6 months): 0.13 | effect on physical health or functioning [1, 5]: no detrimental effect | impact on mental health status [1, 5]: strong, positive impact | negative mood symptom scores (women with PMS; [6]): significant decrease | somatic symptom scores (women with PMS; [6]): significant decrease | irritability, depression, feeling of swelling, breast tenderness and food craving (women with PMS; in comparison to placebo): significantly improved | myocardial fibrosis (animal models): prevents | adjusted mean change in ABPM DBP from baseline to final visit [2, 7]: −8.7 mmHg | adjusted mean change in ABPM SBP from baseline to final visit [2, 7]: −15.8 mmHg | adjusted mean change in Cuff DBP from baseline to final visit ([2]; eight-week study): −9.5 mmHg | adjusted mean change in Cuff SBP from baseline to final visit ([2]; eight-week study): −16.7 mmHg
